According to ChEMBL document CHEMBL1201862, “PubChem BioAssay data set” (2004):
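Where inhibition never reached the appropriate level, the endpoint shown equals the highest concentration tested. Otherwise, values were interpolated linearly from a five-concentration, 48-hour dose response in 96-well plates. At the GI50, growth is halved.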 Activity calls are given as the source filed them. Cut-off read from the data, not from the text of the source: active = GI50 up to about 1.1 µM and inactive = higher.

What was measured:
Test in all cases: NCI tumour cell line growth inhibition, 48 h
[1] = system: EKVX
[2] = system: HCT-116
[3] = system: HT-29
[4] = system: MDA-MB-231
[5] = system: MDA-MB-435
[6] = system: MOLT-4
[7] = system: NCI-H23
[8] = system: OVCAR-8
[9] = system: PC-3
[10] = system: RPMI-8226
[11] = system: SF-295
[12] = system: SK-MEL-28
[13] = system: SK-MEL-2
[14] = system: SNB-19
[15] = system: SW-620
[16] = system: T47D
[17] = system: U-251
[18] = system: UACC-257
[19] = system: SK-MEL-5

SMILES	GI50 [1]	GI50 [2]	GI50 [3]	GI50 [4]	GI50 [5]	GI50 [6]	GI50 [7]	GI50 [8]	GI50 [9]	GI50 [10]	GI50 [11]	GI50 [12]	GI50 [13]	GI50 [14]	GI50 [15]	GI50 [16]	GI50 [17]	GI50 [18]	GI50 [19]
Nc1sc2c(c1C(=O)c1ccc(Cl)c(Cl)c1)CCCC2	29.1 µM (inactive)	40.4 µM (inactive)	36.4 µM (inactive)	> 100 µM (inactive)	30.8 µM (inactive)	21.7 µM (inactive)	45.3 µM (inactive)	67 µM (inactive)	44.1 µM (inactive)	17.8 µM (inactive)	37.2 µM (inactive)	> 100 µM (inactive)	15 µM (inactive)	64.1 µM (inactive)	35.7 µM (inactive)	36.2 µM (inactive)	45 µM (inactive)	54.8 µM (inactive)	
CC1=C(SCc2ccccc2)C(=O)c2ccccc2C1=O	19.1 µM (inactive)	4.23 µM (inactive)	30.3 µM (inactive)	17.1 µM (inactive)	14.6 µM (inactive)	1.68 µM (inactive)	17.9 µM (inactive)	13.4 µM (inactive)	17.6 µM (inactive)	2.42 µM (inactive)	18.1 µM (inactive)	19.2 µM (inactive)	17.8 µM (inactive)		19.9 µM (inactive)	3.18 µM (inactive)	16.8 µM (inactive)	16.1 µM (inactive)	14.4 µM (inactive)
COc1cc(/C=C2\NC(=O)N(/C=C3\C(=O)Oc4ccccc4C3=O)C2=O)ccc1O	> 100 µM (inactive)	> 100 µM (inactive)	54.5 µM (inactive)	35.2 µM (inactive)	> 100 µM (inactive)	36.2 µM (inactive)	80.2 µM (inactive)	56 µM (inactive)	64 µM (inactive)	> 100 µM (inactive)	> 100 µM (inactive)		> 100 µM (inactive)	37.5 µM (inactive)	> 100 µM (inactive)	> 100 µM (inactive)	76.6 µM (inactive)	> 100 µM (inactive)	41 µM (inactive)
C[C@@H](NC(=O)Nc1cccc(C(=O)Nc2cc(C(C)(C)C)ccc2C(=O)O)n1)c1ccccc1	52.5 µM (inactive)	19.9 µM (inactive)	35.5 µM (inactive)	23.4 µM (inactive)	37.3 µM (inactive)	38 µM (inactive)	41.7 µM (inactive)	40.6 µM (inactive)	25.1 µM (inactive)	41.8 µM (inactive)	25.2 µM (inactive)	41.4 µM (inactive)	18.1 µM (inactive)	47 µM (inactive)	39 µM (inactive)	46 µM (inactive)	16.1 µM (inactive)		30.1 µM (inactive)
Cn1c(=O)n2c(=O)n(C)c(=O)n2c1=O	> 100 µM (inactive)	91.8 µM (inactive)	> 100 µM (inactive)	> 100 µM (inactive)	> 100 µM (inactive)	> 100 µM (inactive)	> 100 µM (inactive)	> 100 µM (inactive)	> 100 µM (inactive)	> 100 µM (inactive)		> 100 µM (inactive)	> 100 µM (inactive)	> 100 µM (inactive)	> 100 µM (inactive)	> 100 µM (inactive)	> 100 µM (inactive)	> 100 µM (inactive)	> 100 µM (inactive)
CCOC(=O)NC(Nc1ccc(C(=O)OCC)cc1)(C(F)(F)F)C(F)(F)F		> 100 µM (inactive)	> 100 µM (inactive)	> 100 µM (inactive)	51.2 µM (inactive)	11.1 µM (inactive)	> 100 µM (inactive)	> 100 µM (inactive)	45 µM (inactive)	> 100 µM (inactive)	> 100 µM (inactive)	> 100 µM (inactive)		96.8 µM (inactive)	61.4 µM (inactive)	49 µM (inactive)	68.1 µM (inactive)		65.2 µM (inactive)
Fc1cccc(F)c1C1SCC2=Nc3ccccc3CN21 (centres undefined)	79.6 µM (inactive)	26.5 µM (inactive)		> 100 µM (inactive)	> 100 µM (inactive)	74 µM (inactive)	39.8 µM (inactive)		30.8 µM (inactive)	56.1 µM (inactive)	38.1 µM (inactive)	> 100 µM (inactive)		44.1 µM (inactive)	> 100 µM (inactive)	49.7 µM (inactive)	> 100 µM (inactive)	60.3 µM (inactive)	31.4 µM (inactive)
N/C(COc1ccc(Cl)cc1)=N\NC(=O)c1ccncc1	76.2 µM (inactive)	> 100 µM (inactive)	> 100 µM (inactive)	> 100 µM (inactive)	> 100 µM (inactive)	> 100 µM (inactive)	> 100 µM (inactive)	> 100 µM (inactive)	> 100 µM (inactive)	39.4 µM (inactive)	> 100 µM (inactive)	> 100 µM (inactive)	> 100 µM (inactive)	> 100 µM (inactive)	> 100 µM (inactive)	62.4 µM (inactive)	> 100 µM (inactive)	72.4 µM (inactive)	
Cc1ccc([N+](=O)[O-])cc1S(=O)(=O)Nc1ccc(C(=O)/C=C/c2cccs2)cc1	20.1 µM (inactive)	18.2 µM (inactive)	18.9 µM (inactive)	16.3 µM (inactive)	17.6 µM (inactive)	22.2 µM (inactive)	20.2 µM (inactive)	37.4 µM (inactive)	21.1 µM (inactive)	20.7 µM (inactive)	32.7 µM (inactive)	23.1 µM (inactive)	20.6 µM (inactive)	21.5 µM (inactive)	22.4 µM (inactive)	25.6 µM (inactive)		20.5 µM (inactive)	16.9 µM (inactive)
Nc1ccc(-c2nc3cc(F)ccc3s2)cc1Br	2.71 µM (inactive)	0.0552 µM (active)	0.368 µM (active)	8.95 µM (inactive)	> 100 µM (inactive)	> 100 µM (inactive)		28.7 µM (inactive)	26.6 µM (inactive)	> 78.2 µM (inactive)	23.5 µM (inactive)	> 100 µM (inactive)	> 89.5 µM (inactive)	53.3 µM (inactive)	> 93.8 µM (inactive)	0.038 µM (active)	18.1 µM (inactive)	> 100 µM (inactive)	33.1 µM (inactive)
NS(=O)(=O)c1ccc(/N=N/c2nc3nc(O)nc(O)c3[nH]2)cc1	> 100 µM (inactive)	> 100 µM (inactive)	> 100 µM (inactive)	> 100 µM (inactive)	> 100 µM (inactive)		> 100 µM (inactive)	> 100 µM (inactive)	> 100 µM (inactive)	> 100 µM (inactive)	> 100 µM (inactive)	> 100 µM (inactive)	> 100 µM (inactive)	> 100 µM (inactive)	> 100 µM (inactive)	> 100 µM (inactive)	> 100 µM (inactive)	> 100 µM (inactive)	> 100 µM (inactive)
